Numbers after ± are expanded uncertainties.
Assay: xn = mol fraction of the nth substance listed
Conditions: 101 kPa, Liquid

CCn1cc[n+](C)c1.F[B-](F)(F)F [1-ethyl-3-methylimidazolium tetrafluoroborate] + O
Conditions	mass density [kg/m3]	viscosity [mPa·s]
293.15 K, x2 = 0	1340.7 ± 50	45.29 ± 2.9
293.15 K, x2 = 0.0995	1336.1 ± 50	34.43 ± 2.3
293.15 K, x2 = 0.2062	1330 ± 50	25.1 ± 1.7
293.15 K, x2 = 0.3047	1322.9 ± 50	19.25 ± 1.3
293.15 K, x2 = 0.4034	1313.4 ± 50	13.76 ± 0.98
293.15 K, x2 = 0.5034	1299.8 ± 50	10.36 ± 0.77
293.15 K, x2 = 0.5998	1284.2 ± 50	7.892 ± 0.61
293.15 K, x2 = 0.7005	1262 ± 50	5.797 ± 0.48
293.15 K, x2 = 0.8011	1225.9 ± 50	4.127 ± 0.36
293.15 K, x2 = 0.9027	1157.4 ± 50	3.035 ± 0.27
298.15 K, x2 = 0	1336.7 ± 50	37.19 ± 2.4
298.15 K, x2 = 0.0995	1332.1 ± 50	29.02 ± 1.9
298.15 K, x2 = 0.2062	1326 ± 50	21.01 ± 1.4
298.15 K, x2 = 0.3047	1318.9 ± 50	15.96 ± 1.1
298.15 K, x2 = 0.4034	1309.5 ± 50	11.45 ± 0.84
298.15 K, x2 = 0.5034	1296 ± 50	8.597 ± 0.66
298.15 K, x2 = 0.5998	1280.6 ± 50	6.975 ± 0.56
298.15 K, x2 = 0.7005	1258.4 ± 50	4.822 ± 0.42
298.15 K, x2 = 0.8011	1222.3 ± 50	3.499 ± 0.31
298.15 K, x2 = 0.9027	1154.2 ± 50	2.584 ± 0.23
303.15 K, x2 = 0	1332.9 ± 50	31.36 ± 2.1
303.15 K, x2 = 0.0995	1328.3 ± 50	24.8 ± 1.7
303.15 K, x2 = 0.2062	1322.2 ± 50	17.9 ± 1.2
303.15 K, x2 = 0.3047	1315.2 ± 50	13.58 ± 0.97
303.15 K, x2 = 0.4034	1305.8 ± 50	9.674 ± 0.72
303.15 K, x2 = 0.5034	1292.3 ± 50	7.384 ± 0.58
303.15 K, x2 = 0.5998	1276.9 ± 50	5.492 ± 0.47
303.15 K, x2 = 0.7005	1254.8 ± 50	3.896 ± 0.34
303.15 K, x2 = 0.8011	1218.7 ± 50	2.962 ± 0.27
303.15 K, x2 = 0.9027	1151.1 ± 50	2.189 ± 0.2
308.15 K, x2 = 0	1329.6 ± 50	25.56 ± 1.7
308.15 K, x2 = 0.0995	1324.9 ± 50	20.53 ± 1.4
308.15 K, x2 = 0.2062	1318.9 ± 50	14.58 ± 1
308.15 K, x2 = 0.3047	1311.9 ± 50	10.93 ± 0.8
308.15 K, x2 = 0.4034	1302.5 ± 50	8.187 ± 0.63
308.15 K, x2 = 0.5034	1288.9 ± 50	6.409 ± 0.52
308.15 K, x2 = 0.5998	1273.5 ± 50	4.707 ± 0.41
308.15 K, x2 = 0.7005	1251.4 ± 50	3.531 ± 0.31
308.15 K, x2 = 0.8011	1215.4 ± 50	2.555 ± 0.23
308.15 K, x2 = 0.9027	1148 ± 50	1.898 ± 0.17
313.15 K, x2 = 0	1325.9 ± 50	21.54 ± 1.5
313.15 K, x2 = 0.0995	1321.2 ± 50	17.96 ± 1.2
313.15 K, x2 = 0.2062	1315.2 ± 50	12.68 ± 0.91
313.15 K, x2 = 0.3047	1308.1 ± 50	9.634 ± 0.72
313.15 K, x2 = 0.4034	1298.7 ± 50	7.165 ± 0.57
313.15 K, x2 = 0.5034	1285.3 ± 50	5.465 ± 0.46
313.15 K, x2 = 0.5998	1269.7 ± 50	4.159 ± 0.36
313.15 K, x2 = 0.7005	1247.5 ± 50	3.133 ± 0.28
313.15 K, x2 = 0.8011	1211.8 ± 50	2.267 ± 0.21
313.15 K, x2 = 0.9027	1145 ± 50	1.689 ± 0.16
318.15 K, x2 = 0	1322.2 ± 50	18.84 ± 1.3
318.15 K, x2 = 0.0995	1317.6 ± 50	15.93 ± 1.1
318.15 K, x2 = 0.2062	1311.6 ± 50	11.16 ± 0.82
318.15 K, x2 = 0.3047	1304.5 ± 50	8.324 ± 0.64
318.15 K, x2 = 0.4034	1295 ± 50	6.357 ± 0.52
318.15 K, x2 = 0.5034	1281.6 ± 50	4.979 ± 0.43
318.15 K, x2 = 0.5998	1266 ± 50	3.63 ± 0.32
318.15 K, x2 = 0.7005	1243.9 ± 50	2.584 ± 0.23
318.15 K, x2 = 0.8011	1208.2 ± 50	2.044 ± 0.19
318.15 K, x2 = 0.9027	1141.8 ± 50	1.53 ± 0.14
323.15 K, x2 = 0	1319.5 ± 50	15.9 ± 1.1
323.15 K, x2 = 0.0995	1314.8 ± 50	13.74 ± 0.98
323.15 K, x2 = 0.2062	1308.8 ± 50	9.797 ± 0.73
323.15 K, x2 = 0.3047	1301.6 ± 50	7.47 ± 0.59
323.15 K, x2 = 0.4034	1292 ± 50	5.692 ± 0.48
323.15 K, x2 = 0.5034	1278.6 ± 50	4.522 ± 0.4
323.15 K, x2 = 0.5998	1263.1 ± 50	3.215 ± 0.29
323.15 K, x2 = 0.7005	1240.7 ± 50	2.512 ± 0.23
323.15 K, x2 = 0.8011	1205 ± 50	1.904 ± 0.18
323.15 K, x2 = 0.9027	1138.5 ± 50	1.439 ± 0.14
